Results as given in US9371290B2, “Pyridazinone compounds” (BIOTIE THERAPIES CORPORATION, priority 2011, dated 2016).

Experiments:
[1] = tested on: Total MAO; assay: Total rat MAO activity (rat liver mitochondrial preparation, tyramine substrate); type: biochemical
Description: Rat MAO was prepared from rat liver by rinsing the 1 g liver sample several times in 14 ml KCl-EDTA-solution to remove all blood. Then 1 g liver sample was homogenized in 4 ml ice-cold potassium phosphate buffer (0.1 M, pH 7.4) with an Ultra-Turrax homogenizer (setting 11 000 rpm, 4×10 s). After centrifugation at 500 g for 10 min at 4° C. the supernatant was carefully withdrawn and was centrifuged at 12 300 g for 15 min at 4° C. The supernatant was discharged and sedimented mitochondria were resuspended in 4 ml fresh phosphate buffer and centrifuged as previously. The mitochondria were suspended in 4 ml phosphate buffer and homogenized with an Ultra-Turrax homogenizer (setting 11 000 rpm, 2×10 s). Mitochondrial preparate was aliquoted and stored at −70° C. Total MAO activity was measured in a similar way as for VAP-1 SSAO except that SSAO enzyme was replaced by MAO enzyme. To each well was added a predetermined amount of inhibitor if required. The amount of inhibitor varied in each assay but was generally at a final concentration of between 10 nM and 800 μM. Controls lacked inhibitor. The inhibitor was in a total volume of 20 μl in water. The following reagents were then added. 0.2 M potassium phosphate buffer pH 7.6 for a total reaction volume of 200 μl, 50 μl of freshly made chromogenic solution (as above) and 50 μl of MAO preparation (or needed amount of MAO). The plates were incubated for 30 min at 37° C. and the background absorbance measured at 490 nm using a Wallac Victor II multilabel counter. To initiate the enzyme reaction 20 μl of 5 mM tyramine (final concentration 0.5 mM) was added and the plate incubated for 1 h at 37° C. The increase in absorbance, reflecting MAO activity, was measured at 490 nm. Inhibition was presented as percent inhibition compared to control after correcting for background absorbance and IC50 values calculated using GraphPad Prism. Clorgyline and pargyline (inhibitors of MAO-A and -B respectively) at 0.5 μM were added to some wells as positive controls for MAO inhibition.

[2] = target: T1, Recombinant human VAP-1 SSAO (Homo sapiens, UniProt Q16853); assay: In vitro inhibition of VAP-1 SSAO activity (coupled colorimetric method, benzylamine substrate); type: biochemical; settings: CHO cell lysate, 1 mM benzylamine, read-out: VAP-1 SSAO Inhibitory activity IC50
T1 construct: made in house; host or cells: Chinese Hamster Ovary (CHO) cells; clarified NP40 cell lysate used directly
T1 sequence (Q16853 1-763): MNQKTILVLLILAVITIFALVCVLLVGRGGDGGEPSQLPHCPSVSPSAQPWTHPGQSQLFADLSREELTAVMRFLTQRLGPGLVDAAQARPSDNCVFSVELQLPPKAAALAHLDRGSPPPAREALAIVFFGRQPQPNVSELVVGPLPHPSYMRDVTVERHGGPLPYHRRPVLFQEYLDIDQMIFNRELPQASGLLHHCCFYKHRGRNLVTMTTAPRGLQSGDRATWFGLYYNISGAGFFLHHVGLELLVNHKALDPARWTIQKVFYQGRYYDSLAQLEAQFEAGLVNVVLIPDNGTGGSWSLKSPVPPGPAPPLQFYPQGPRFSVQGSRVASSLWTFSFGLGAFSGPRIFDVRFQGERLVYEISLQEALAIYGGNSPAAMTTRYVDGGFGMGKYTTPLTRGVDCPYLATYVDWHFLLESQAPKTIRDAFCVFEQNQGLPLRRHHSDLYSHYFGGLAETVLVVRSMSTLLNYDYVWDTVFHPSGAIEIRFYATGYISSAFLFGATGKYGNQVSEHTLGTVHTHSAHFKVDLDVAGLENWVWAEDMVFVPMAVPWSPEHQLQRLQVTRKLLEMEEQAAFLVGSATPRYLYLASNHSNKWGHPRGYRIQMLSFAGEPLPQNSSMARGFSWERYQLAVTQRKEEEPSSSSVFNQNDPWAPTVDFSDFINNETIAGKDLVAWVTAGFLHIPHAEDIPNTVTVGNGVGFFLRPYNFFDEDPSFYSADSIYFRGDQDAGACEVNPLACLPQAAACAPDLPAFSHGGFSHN
Description: VAP-1 SSAO activity was measured using the coupled colorimetric method essentially as described for monoamine oxidase and related enzymes (Holt, A., et al., Anal. Biochem. 244:384-392 (1997)). Recombinant human VAP-1 SSAO expressed in Chinese Hamster Ovary (CHO) cells was used as a source of VAP-1 SSAO for activity measurements. Native CHO cells have negligible SSAO activity. These cells and their culture have previously been described (Smith, D. J., et al., J. Exp. Med. 188:17-27 (1998)). A cell lysate was prepared by suspending approximately 3.6×10^8 cells in 25 ml lysis buffer (150 mM NaCl, 10 mM Tris-Base pH 7.2, 1.5 mM MgCl2, 1% NP40) and incubating at 4° C. overnight on a rotating table. The lysate was clarified by centrifugation at 18 000 g for 5 min at room temperature and the supernatant used directly in the assay. The VAP-1 SSAO assay was performed in 96 well microtitre plates as follows. To each well was added a predetermined amount of inhibitor if required. The amount of inhibitor varied in each assay but was generally at a final concentration of between 1 nM and 50 μM. Controls lacked inhibitor. The inhibitor was in a total volume of 20 μl in water. The following reagents were then added. 0.2 M potassium phosphate buffer pH 7.6 to a total reaction volume of 200 μl, 50 μl of freshly made chromogenic solution containing 1 mM vanillic acid, 500 μM 4-aminoantipyrine and 8 U/ml horseradish peroxidase and an amount of CHO cell lysate containing VAP-1 SSAO that caused a change of 0.6 A490 per h. This was within the linear response range of the assay. The plates were incubated for 30 min at 37° C. and the background absorbance measured at 490 nm using a Wallac Victor II multilabel counter. To initiate the enzyme reaction 20 μl 10 mM benzylamine (final concentration=1 mM) was added and the plate incubated for 1 h at 37° C. The increase in absorbance, reflecting VAP-1 SSAO activity, was measured at 490 nm. Inhibition was presented as percent inhibition compared to control after correcting for background absorbance and IC50 values calculated using GraphPad Prism.

SMILES	Total MAO Inhibitory activity (%) ([1]; at 100 μM)	IC50 [2]	melting point	Total MAO Inhibitory activity (%) ([1]; at 50 μM)	Total MAO Inhibitory activity (%) ([1]; at 250 μM)
O=c1cc(Sc2ccccc2)c(-c2nc[nH]n2)nn1-c1ccccc1 [Compound 16, 2-phenyl-5-phenylsulfanyl-6-(1H-1,2,4-triazol-3-yl)-3(2H)-pyridazinone]	24%	640 nM	245 to 250 °C	–	–
C#CCCNc1cc(=O)n(-c2ccc(Cl)cc2)nc1-c1nc[nH]n1 [Compound 83]	–	73 nM	176 to 177 °C	0%	–
O=c1cc(Nc2ccc3c(c2)OCO3)c(-c2nc[nH]n2)nn1-c1ccc(Cl)cc1 [Compound 59, 2-(4-chlorophenyl)-5-[(3,4-methylenedioxyphenyl)amino]-6-(1H-1,2,4-triazol-3-yl)-3(2H)-pyridazinone]	–	80 nM	270 to 273 °C	–	14%
O=c1cc(NCc2ccccc2)c(-c2nc[nH]n2)nn1-c1ccccc1 [Compound 42, 5-benzylamino-2-phenyl-6-(1H-1,2,4-triazol-3-yl)-3(2H)-pyridazinone]	2%	720 nM	192 to 193 °C	–	–
CN(C)CCNc1cc(=O)n(-c2ccccc2)nc1-c1nc[nH]n1 [Compound 13]	–	15000 nM	211 to 214 °C	–	–
COc1cc(Nc2cc(=O)n(-c3ccc(Cl)cc3)nc2-c2nc[nH]n2)cc(OC)c1OC [Compound 61]	–	300 nM	238 to 241 °C	–	17%
O=c1cc(Nc2ccc(N3CCN(Cc4ccccc4)CC3)cc2)c(-c2nc[nH]n2)nn1-c1ccc(Cl)cc1 [Compound 77]	–	350 nM	248 to 251 °C	24%	–
CN1CCC(Nc2cc(=O)n(-c3ccc(Cl)cc3)nc2-c2nc[nH]n2)CC1 [Compound 68]	–	180 nM	227 to 230 °C	–	–
O=c1cc(Oc2ccccc2)c(-c2nc[nH]n2)cn1-c1ccccc1 [Compound 34, 4-phenoxy-5-(1H-1,2,4-triazol-3-yl)-1-phenylpyridin-2(1H)-one]	24%	1600 nM	275 to 276 °C	–	–
CC(C)Nc1cc(=O)n(-c2ccccc2)nc1-c1nc[nH]n1 [Compound 29, 5-isopropylamino-2-phenyl-6-(1H-1,2,4-triazol-3-yl)-3(2H)-pyridazinone]	9%	270 nM	203 to 205 °C	–	–
O=c1cc(NCC2CC2)c(-c2nc[nH]n2)nn1-c1ccc(Cl)cc1 [Compound 71]	–	170 nM	255 to 257 °C	16%	–
Cn1cc(-c2nn(-c3ccccc3)c(=O)cc2Oc2ccccc2)cn1 [Compound 17, 6-(1-methyl-1H-pyrazol-4-yl)-5-phenoxy-2-phenylpyridazin-3(2H)-one]	22%	236000 nM	195 to 197 °C	–	–
CNc1cc(=O)n(-c2ccccc2)nc1-c1nc[nH]n1 [Compound 28]	10%	3600 nM	245 to 247 °C	–	–
CN1CCN(c2ccc(Nc3cc(=O)n(-c4ccc(Cl)cc4)cc3-c3nc[nH]n3)cc2)CC1 [Compound 81]	–	31 nM	218 to 221 °C	–	–
C=CCOc1cc(=O)n(-c2ccc(Cl)cc2)nc1-c1nc[nH]n1 [Compound 73]	–	2200 nM	172 to 175 °C	0%	–
C=CCNc1cc(=O)n(-c2ccc(Cl)cc2)nc1-c1nc[nH]n1 [Compound 70]	–	140 nM	212 to 215 °C	18%	–

SMILES	Total MAO Inhibitory activity (%) ([1]; at 100 μM)	IC50 [2]	melting point	Total MAO Inhibitory activity (%) ([1]; at 50 μM)	Total MAO Inhibitory activity (%) ([1]; at 250 μM)
O=c1cc(NC2CCCCC2)c(-c2nc[nH]n2)nn1-c1ccccc1 [Compound 43, 5-cyclohexylamino-2-phenyl-6-(1H-1,2,4-triazol-3-yl)-3(2H)-pyridazinone]	5%	78 nM	–	–	–
CN1CCN(c2ccc(Nc3cc(=O)n(-c4ccc(Cl)cc4)nc3-c3nc[nH]n3)cc2)CC1 [Compound 63]	–	70 nM	227 to 229 °C	–	–
O=c1cc(NCCN2CCOCC2)c(-c2nc[nH]n2)nn1-c1ccccc1 [Compound 39]	–	2000 nM	251 to 258 °C	–	–
NCCCNc1cc(=O)n(-c2ccc(Cl)cc2)nc1-c1nc[nH]n1 [Compound 78]	–	800 nM	285 to 290 °C	–	–
O=c1cc(Nc2ccccc2)c(-c2nc[nH]n2)nn1-c1ccc(Cl)cc1 [Compound 64]	–	–	244 to 246 °C	–	–
O=c1cc(Oc2ccccc2)c(-c2ccco2)nn1-c1ccccc1 [Compound 18]	–	–	232 to 234 °C	–	–
O=c1cc(Nc2ccncc2)c(-c2nc[nH]n2)nn1-c1ccccc1 [Compound 53]	–	–	342 to 344 °C	–	–
O=c1cc(Nc2ccccc2)c(-c2nc[nH]n2)nn1-c1ccccc1 [Compound 40]	–	–	287 to 290 °C	–	–
CN(C)/C=N/C(=O)c1nn(-c2ccccc2)c(=O)cc1Oc1ccccc1 [Compound 23, N,N-dimethyl-N′-[(6-oxo-4-phenoxy-1-phenyl-1,6-dihydropyridazin-3-yl)carbonyl]formamidine]	–	–	175 to 176 °C	–	–
CN(C)CCNC(=O)c1nn(-c2ccccc2)c(=O)cc1Oc1ccccc1.Cl	–	–	138 to 141 °C	–	–
CCCc1cn(-c2cc(=O)n(-c3ccccc3)nc2C#N)nn1 [Compound 32, 6-oxo-1-phenyl-4-(4-propyl-1H-1,2,3-triazol-1-yl)-1,6-dihydropyridazine-3-carbonitrile]	–	–	192 to 195 °C	–	–
CCOC(=O)c1cn(-c2cc(=O)n(-c3ccccc3)nc2C(=O)OC)nn1 [Compound 7]	–	–	165 to 170 °C	–	–
COc1ccc(Nc2cc(=O)n(-c3ccc(Cl)cc3)nc2-c2nc[nH]n2)cc1OC [Compound 60]	–	–	227 to 230 °C	–	–
O=c1cc(Oc2ccccc2)c(-c2cn[nH]c2)nn1-c1ccccc1 [Compound 30]	–	–	245 to 247 °C	–	–
COC(=O)c1nn(-c2ccccc2)c(=O)cc1-n1cc(-c2ccccc2)nn1 [Compound 6]	–	–	240 to 248 °C	–	–
